Measured values as given in patent US7968720B2, “Secondary amines as renin inhibitors” (Actelion Pharmaceuticals Ltd., priority 2006, dated 2011).

Molecular target: T1, recombinant human renin (Homo sapiens, UniProt P00797)
T1 sequence (P00797 67-406): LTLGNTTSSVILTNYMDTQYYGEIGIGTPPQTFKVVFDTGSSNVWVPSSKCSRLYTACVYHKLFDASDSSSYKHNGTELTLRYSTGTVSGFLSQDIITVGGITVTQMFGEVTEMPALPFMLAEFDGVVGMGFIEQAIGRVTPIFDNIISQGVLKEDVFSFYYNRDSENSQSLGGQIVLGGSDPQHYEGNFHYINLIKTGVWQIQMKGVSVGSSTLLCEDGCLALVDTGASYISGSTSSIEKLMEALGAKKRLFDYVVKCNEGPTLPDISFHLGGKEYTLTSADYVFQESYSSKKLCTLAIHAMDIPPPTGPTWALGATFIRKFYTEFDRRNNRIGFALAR
Test: Primary renin inhibition assay: IC50 in buffer, 384 well MTP (AngI measured by EIA)
Type: biochemical
Settings: human tetradecapeptide (1-14) substrate, incubated at 37° C. for 3 h, AngI quantified by EIA
Protocol: 1. Enzyme Immuno Assay (EIA) to Estimate AngI Accumulation and Renin Inhibition
1.1 Preparation of AngI-BSA Conjugate
1.3 mg (1 μmol) of AngI [1-10 (Bachem, H-1680)] and 17 mg (0.26 μmol) of BSA (Fluka, 05475) were dissolved in 4 mL of 0.1M phosphate buffer, pH 7.4, after which 2 mL of a 1:100 dilution of glutaraldehyde in H2O (Sigma G-5882) was added dropwise. The mixture was incubated overnight at 4° C., then dialyzed against 2 liters of 0.9% NaCl, twice for 4 h at rt, followed by dialysis against 2 liters of PBS 1× overnight at rt. The solution was then filtered with a Syringe filter, 0.45 μm (Nalgene, Cat. No. 194-2545). The conjugate can be stored in polypropylene tubes in 0.05% sodium azide at 4° C. for at least 12 months.
1.2 Preparation of BSA-AngI Coated MTP
Microtiter plates (MPT384, MaxiSorp™, Nunc) were incubated overnight at 4° C. with 80 μl of AngI (1-10)/BSA conjugate, diluted 1:100'000 in PBS 1× in a teflon beaker (exact dilution dependent on batch of conjugate), emptied, filled with 90 μl of blocking solution [0.5% BSA (Sigma A-2153) in PBS 1×, 0.02% NaN3], and incubated for at least 2 h at rt, or overnight at 4° C. 96 well MTP (MaxiSorp™, Nunc) were coated with 200 μl conjugate and blocked with 250 μl blocking solution as above, except that the blocking solution contained 3% BSA. The plates can be stored in blocking solution at 4° C. for 1 month.
1.3 AngI-EIA in 384 Well MTP
The AngI (1-10)/BSA coated MTP were washed 3 times with wash buffer (PBS 1×, 0.01% Tween 20) and filled with 75 μl of primary antibody solution (anti-AngI antiserum, pre-diluted 1:10 in horse serum), diluted to a final concentration of 1:100'000 in assay buffer (PBS 1×, 1 mM EDTA, 0.1% BSA, pH 7.4). 5 μl of the renin reaction (or standards in assay buffer) (see below) were added to the primary antibody solution and the plates were incubated overnight at 4° C. After the incubation the plates were washed 3 times with wash buffer and incubated with secondary antibody [anti-rabbit IgG, linked to horseradish peroxidase (Amersham Bioscience, NA 934V), diluted 1:2'000 in wash buffer] for 2 h at rt. The plates were washed 3 times with wash buffer and then incubated for 1 h at rt with substrate solution [1.89 mM ABTS (2,2′-azino-di-(3-ethyl-benzthiazolinsulfonate)] (Roche Diagnostics, 102 946) and 2.36 mM H2O2 [30%, (Fluka, 95300] in substrate buffer (0.1M sodium acetate, 0.05M sodium dihydrogen phosphate, pH 4.2). The OD of the plate was read at 405 nm in a microplate reader (FLUOStar Optima from BMG). The production of AngI during the renin reaction was quantified by comparing the OD of the sample with the OD of a standard curve of AngI(1-10), measured in parallel.
2. Primary Renin Inhibition Assay: IC50 in Buffer, 384 Well MTP
The renin assay was adapted from an assay described before (Fischli W. et al., Hypertension, 1991, 18:22-31) and consists of two steps: in the first step, recombinant human renin is incubated with its substrate (commercial human tetradecapeptide renin substrate) to create the product Angiotensin I (AngI). In the second step, the accumulated AngI is measured by an immunological assay (enzyme immuno assay, EIA). The detailed description of this assay is found below. The EIA is very sensitive and well suited for renin activity measurements in buffer or in plasma. Due to the low concentration of renin used in this assay (2 fmol per assay tube or 10 pM) it is possible to measure inhibitor affinities in this primary assay down to low pM concentration.
Recombinant human renin (3 pg/μl) in assay buffer (PBS 1×, 1 mM EDTA, 0.1% BSA, pH 7.4), human tetradecapeptide (1-14) substrate (Bachem, M-1120) [5 μM in 10 mM HCl], hydroxyquinoline sulfate (Fluka, 55100) [30 mM in H2O] and assay buffer were premixed at 4° C. at a ratio of 100:30:10:145. 47.5 μl per well of this premix was transferred into polypropylene plates (MTP384, Nunc). […]

IC50 [nM] | SMILES
0.26 | COCCCc1cc(CN(C(=O)C2=C(c3ccc(OCCOc4c(Cl)cc(C)cc4Cl)nc3)C[C@@H]3CNC[C@H]2N3)C2CC2)c(Cl)cn1 [Example 42, (1R,5S)-7-{6-[2-(2,6-Dichloro-4-methyl-phenoxy)-ethoxy]-pyridin-3-yl}-3,9-diaza-bicyclo[3.3.1]non-6-ene-6-carboxylic acid [5-chloro-2-(3-methoxy-propyl)-pyridin-4-ylmethyl]-cyclopropyl-amide]
0.18 | O=C(NCc1ccc(Cl)c(CN(C(=O)[C@H]2CNCC[C@@H]2c2ccc(OCc3cc(-c4c(F)ccc(F)c4Cl)no3)cc2)C2CC2)c1)C1CC1 [Example 83, (3R,4S)-4-{4-[3-(2-Chloro-3,6-difluoro-phenyl)-isoxazol-5-ylmethoxy]-phenyl}-piperidine-3-carboxylic acid {2-chloro-5-[(cyclopropanecarbonyl-amino)-methyl]-benzyl}-cyclopropyl-amide]
